Assay results as given in US8546414B2, “Ion channel modulators and methods of use” (Vertex Pharmaceuticals Incorporated, priority 2004, dated 2013).

Columns and labels:
CaV2.2 = target: T1, CaV2.2 (Homo sapiens, UniProt Q00975); test: VIPR optical membrane potential assay with electrical stimulation, CaV2.2; format: cell-based; conditions: Table 9, CaV 2.2 receptors
T1 construct: expressed in transfected cells; host or cells: HEK293
Method: A. Optical Methods for Assaying CaV Inhibition Properties of Compounds:
(§1) Antagonist properties of test compounds were assessed as follows. Cells expressing the CaV of interest were placed into microtiter plates. After an incubation period, the cells were stained with fluorescent dyes sensitive to the transmembrane potential. The test compounds were added to the microtiter plate. The cells were stimulated with electrical means to evoke a CaV dependent membrane potential change from unblocked channels, which was detected and measured with trans-membrane potential-sensitive dyes. Antagonists were detected as a decreased membrane potential response to the stimulus.
(§2) VIPR® Optical Membrane Potential Assay Method with Electrical Stimulation
The following is an example of how CaV2.2 inhibition activity is measured using the optical membrane potential method. Other subtypes are performed in an analogous mode in a cell line expressing the CaV of interest.
HEK293 cells stably expressing CaV2.2 are plated into 96-well microtiter plates. After an appropriate incubation period, the cells are stained with the voltage sensitive dyes CC2-DMPE/DiSBAC2(3) as follows.
(§3) 2X CC2-DMPE=20 μM CC2-DMPE: 10 mM CC2-DMPE is vortexed with an equivalent volume of 10% Pluronic, followed by vortexing in required amount of HBSS containing 10 mM HEPES. Each cell plate will require 5 mL of 2×CC2-DMPE. 50 μL of 2×CC2-DMPE is added to wells containing washed cells, resulting in a 10 μM final staining concentration. The cells are stained for 30 minutes in the dark at RT.
Vortex in required amount of Bath X with beta-cyclodextrin. Each 96 well cell plate will require 5 ml of 2XCC2DMPE. Wash plate with ELx405 with Bath X, leaving a residual volume of 50 μL/well. Add 50 μL of 2XCC2DMPE & […] to each well. Stain for 30 minutes in the dark at RT.
Allow solution to sit for 10 minutes. Slowly mix in 370 mM BaCl2. This solution can be used to solvate compound plates. Note that compound plates are made at 1.5× drug concentration and not the usual 2X. Wash CC2 stained plate, again, leaving residual volume of 50 μL. Add 100 uL/well of the AY17 solution. Stain for 15 minutes in the dark at RT. Run plate on the optical reader.
(§4) The instrument comprises a microtiter plate handler, an optical system for exciting the coumarin dye while simultaneously recording the coumarin and oxonol emissions, a waveform generator, a current- or voltage-controlled amplifier, and a device for inserting electrodes in well. Under integrated computer control, this instrument passes user-programmed electrical stimulus protocols to cells within the wells of the microtiter plate.
Insert or use electrodes into each well to be assayed.
(§5) Use the current-controlled amplifier to deliver stimulation wave pulses for 3-5 s. Two seconds of pre-stimulus recording are performed to obtain the un-stimulated intensities. Five seconds of post-stimulation recording are performed to examine the relaxation to the resting state.
(§6) Data are analyzed and reported as normalized ratios of background-subtracted emission intensities measured in the 460 nm and 580 nm channels. Background intensities are then subtracted from each assay channel. Background intensities are obtained by measuring the emission intensities during the same time periods from identically treated assay wells in which there are no cells. The response as a function of time is then reported as the ratios obtained using the following formula: […]
(§7) The data is further reduced by calculating the initial (Ri) and final (Rf) ratios. These are the average ratio values during part or all of the pre-stimulation period, and during sample points during the stimulation period. The response to the stimulus R=Rf/Ri is then calculated.
Control responses are obtained by performing assays in the presence of a compound with the desired properties (positive control), such as mibefradil, and in the absence of pharmacological agents (negative control).

NaV1.3 = target: T2, NaV1.3 (Homo sapiens, UniProt Q9NY46); test: VIPR optical membrane potential assay with electrical stimulation, NaV1.3; format: cell-based; conditions: Table 9, NaV 1.3 receptors
T2 construct: expressed in transfected cells; host or cells: HEK293
T2 sequence (Q9NY46 whole entry): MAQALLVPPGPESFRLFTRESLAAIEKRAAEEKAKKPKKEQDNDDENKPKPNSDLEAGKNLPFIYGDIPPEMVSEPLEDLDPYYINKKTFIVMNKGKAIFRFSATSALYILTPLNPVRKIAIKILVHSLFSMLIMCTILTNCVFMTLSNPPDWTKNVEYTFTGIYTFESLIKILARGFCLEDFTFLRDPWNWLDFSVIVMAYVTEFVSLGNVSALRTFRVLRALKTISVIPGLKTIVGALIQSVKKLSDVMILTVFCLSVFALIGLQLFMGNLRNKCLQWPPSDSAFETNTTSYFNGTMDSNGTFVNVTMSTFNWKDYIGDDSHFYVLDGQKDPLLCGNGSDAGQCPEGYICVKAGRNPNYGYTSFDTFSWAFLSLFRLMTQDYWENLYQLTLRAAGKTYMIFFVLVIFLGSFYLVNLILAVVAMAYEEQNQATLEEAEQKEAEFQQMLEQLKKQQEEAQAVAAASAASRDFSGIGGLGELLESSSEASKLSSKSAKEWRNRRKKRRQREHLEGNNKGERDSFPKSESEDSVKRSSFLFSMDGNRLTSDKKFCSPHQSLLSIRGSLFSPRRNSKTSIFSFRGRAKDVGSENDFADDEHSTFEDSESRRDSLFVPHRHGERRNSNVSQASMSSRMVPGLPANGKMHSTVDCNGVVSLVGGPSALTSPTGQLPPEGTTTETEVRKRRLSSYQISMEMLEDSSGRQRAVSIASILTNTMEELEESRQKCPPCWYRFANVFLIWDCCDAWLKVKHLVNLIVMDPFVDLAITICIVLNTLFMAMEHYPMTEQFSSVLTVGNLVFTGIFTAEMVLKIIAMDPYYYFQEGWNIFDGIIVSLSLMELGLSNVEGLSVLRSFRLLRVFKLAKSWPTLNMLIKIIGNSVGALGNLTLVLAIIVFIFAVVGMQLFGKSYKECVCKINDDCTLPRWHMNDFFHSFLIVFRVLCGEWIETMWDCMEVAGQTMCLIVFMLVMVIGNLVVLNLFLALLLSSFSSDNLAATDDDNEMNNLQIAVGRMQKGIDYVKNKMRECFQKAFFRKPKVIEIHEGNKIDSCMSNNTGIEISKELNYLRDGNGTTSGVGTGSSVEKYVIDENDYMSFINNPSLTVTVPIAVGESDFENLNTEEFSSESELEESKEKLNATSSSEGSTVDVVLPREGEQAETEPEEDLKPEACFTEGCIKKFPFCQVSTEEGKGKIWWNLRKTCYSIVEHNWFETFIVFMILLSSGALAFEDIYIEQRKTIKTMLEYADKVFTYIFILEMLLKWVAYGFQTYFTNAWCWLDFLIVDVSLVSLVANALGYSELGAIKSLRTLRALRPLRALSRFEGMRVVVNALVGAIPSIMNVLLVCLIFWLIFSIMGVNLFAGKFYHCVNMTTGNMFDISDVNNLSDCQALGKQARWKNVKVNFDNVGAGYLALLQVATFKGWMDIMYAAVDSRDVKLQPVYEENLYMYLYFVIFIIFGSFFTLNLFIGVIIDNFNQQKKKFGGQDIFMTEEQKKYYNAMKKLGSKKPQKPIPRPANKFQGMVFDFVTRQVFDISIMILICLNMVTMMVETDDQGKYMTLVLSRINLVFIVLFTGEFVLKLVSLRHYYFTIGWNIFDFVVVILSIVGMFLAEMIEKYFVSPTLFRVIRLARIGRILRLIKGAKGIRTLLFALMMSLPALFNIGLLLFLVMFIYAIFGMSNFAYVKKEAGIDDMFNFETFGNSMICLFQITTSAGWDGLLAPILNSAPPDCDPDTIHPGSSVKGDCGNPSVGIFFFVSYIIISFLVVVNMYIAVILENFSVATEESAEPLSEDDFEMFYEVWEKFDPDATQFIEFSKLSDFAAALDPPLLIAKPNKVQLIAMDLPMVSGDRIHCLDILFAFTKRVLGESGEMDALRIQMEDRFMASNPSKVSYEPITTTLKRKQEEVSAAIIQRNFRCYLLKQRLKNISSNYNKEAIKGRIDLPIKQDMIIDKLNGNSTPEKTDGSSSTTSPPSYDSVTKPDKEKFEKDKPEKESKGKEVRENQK
Method: as §1, with “expressing the NaV of interest” for “expressing the CaV of interest”, “stimulated with either chemical or electrical means” for “stimulated with electrical means”, “evoke a NaV dependent membrane” for “evoke a CaV dependent membrane”
as §2
The following is an example of how NaV1.3 inhibition activity is measured using the optical membrane potential method#2. Other subtypes are performed in an analogous mode in a cell line expressing the NaV of interest.
HEK293 cells stably expressing NaV1.3 are plated into 96-well microtiter plates. After an appropriate incubation period, the cells are stained with the voltage sensitive dyes CC2-DMPE/DiSBAC2(3) as follows.
as §3, with “pluronic,” for “Pluronic,”
2X DISBAC2(3) with ABSC1=6 μM DISBAC2(3) and 1 mM ABSC1: The required amount of 10 mM DISBAC2(3) is added to a 50 ml conical tube and mixed with 1 μL 10% pluronic for each mL of solution to be made and vortexed together. Then HBSS/HEPES is added to make up 2× solution. Finally, the ABSC1 is added.
The 2X DiSBAC2(3) solution can be used to solvate compound plates. Note that compound plates are made at 2× drug concentration. Wash stained plate again, leaving residual volume of 50 Add 50 μL/well of the 2X DiSBAC2(3) w/ABSC1. Stain for 30 minutes in the dark at RT.
as §4
as §5, with “• 1. Insert or use electrodes into each well to be assayed. • 2. Use” for “Use”, “3” for “3-5”, “state. Data Analysis” for “state.”
as §6, §7
Control responses are obtained by performing assays in the presence of a compound with the desired properties (positive control), such as tetracaine, and in the absence of pharmacological agents (negative control). Responses to the negative (N) and positive (P) controls are calculated as above. The compound antagonist activity A is defined as: […]

Row | SMILES | IC50 (CaV2.2) [µM] | IC50 (NaV1.3) [µM]
1 | COCCNc1ncc(C(=O)N2CCOCC2)c(-c2cccc(C)c2)n1 [compound 321] | > 10 | > 10
2 | N#Cc1ccc(-c2nc(NCc3ccc4c(c3)OCO4)ncc2C(=O)N2CCCC2)cc1 [compound 260] | > 10 | > 10
3 | COCCNc1ncc(C(=O)N(Cc2ccccc2)C(C)C)c(-c2ccccc2F)n1 [compound 300] | > 10 | > 10
4 | CCN(Cc1ccccc1)C(=O)c1cnc(N2CCCCC2)nc1-c1ccccc1F [compound 237] | 2 to 10 | > 10
5 | CCN(Cc1cccc(C)c1)C(=O)c1cnc(NC2CCCC2)nc1-c1ccc(C#N)cc1 [compound 239] | 2 to 10 | > 10
6 | N#Cc1ccc(-c2nc(NCc3ccccc3C(F)(F)F)ncc2C(=O)NCC2CC2)cc1 [compound 248] | > 10 | > 10
7 | CCN(Cc1ccccc1)C(=O)c1cnc(N2CCN(C(C)=O)CC2)nc1-c1ccccc1F [compound 290] | > 10 | > 10
8 | COc1cccc(OC)c1CNc1ncc(C(=O)N(C)CC(C)C)c(-c2ccccc2F)n1 [compound 255] | > 10 | > 10
9 | COCCCNc1ncc(C(=O)NCC2CCCCC2)c(-c2cccc(C)c2)n1 [compound 330] | > 10 | > 10
10 | CC(C)N(Cc1ccccc1)C(=O)c1cnc(NCc2ccc3c(c2)OCO3)nc1-c1ccccc1F [compound 301] | > 10 | > 10
11 | CCN(Cc1cccc(C)c1)C(=O)c1cnc(N2CCN(C(C)=O)CC2)nc1-c1ccc(C#N)cc1 [compound 208] | > 10 | > 10
12 | CCN(Cc1cccc(C)c1)C(=O)c1cnc(N2CCOCC2)nc1-c1ccc(C#N)cc1 [compound 247] | > 10 | > 10
13 | Cc1cccc(-c2nc(NCc3ccccc3)ncc2C(=O)N2CCOCC2)c1 [compound 304] | > 10 | > 10
14 | N#Cc1ccc(-c2nc(N3CCCC3)ncc2C(=O)NCC2CCCCC2)cc1 [compound 346] | > 10 | > 10
15 | COCCCNc1ncc(C(=O)N2CCCCC2)c(-c2cccc(C)c2)n1 [compound 274] | > 10 | > 10
16 | Cc1cccc(-c2nc(N3CCOCC3)ncc2C(=O)N(Cc2ccccc2)C(C)C)c1 [compound 240] | > 10 | > 10
17 | Cc1cccc(-c2nc(NCc3cccc(Cl)c3)ncc2C(=O)N(C)CC(C)C)c1 [compound 235] | > 10 | > 10
18 | COc1ccc(CCN(C)c2ncc(C(=O)N3CCCC3)c(-c3ccc(C#N)cc3)n2)cc1OC [compound 292] | > 10 | > 10
19 | CCC(C)Nc1ncc(C(=O)N(C)CC)c(-c2ccc(C#N)cc2)n1 (centres unmarked) [compound 336] | > 10 | > 10
20 | COCCCNc1ncc(C(=O)N(C)C2CCCCC2)c(-c2ccc(C#N)cc2)n1 [compound 303] | > 10 | > 10

Row | SMILES | IC50 (CaV2.2) [µM] | IC50 (NaV1.3) [µM]
21 | CC(=O)N1CCN(c2ncc(C(=O)N3CCOCC3)c(-c3cccc(C)c3)n2)CC1 [compound 226] | > 10 | > 10
22 | CC(C)CN(C)C(=O)c1cnc(N2CCCCC2)nc1-c1ccc(C#N)cc1 [compound 322] | > 10 | > 10
23 | Cc1cccc(-c2nc(NCc3ccc4c(c3)OCO4)ncc2C(=O)N2CCOCC2)c1 [compound 264] | > 10 | > 10
24 | CCC(C)Nc1ncc(C(=O)N(C)CC)c(-c2cccc(C)c2)n1 (centres unmarked) [compound 273] | > 10 | > 10
25 | CCC(C)NC(=O)c1cnc(N(C)CCc2ccc(OC)c(OC)c2)nc1-c1ccc(C#N)cc1 (centres unmarked) [compound 331] | > 10 | > 10
26 | CCN(C)c1ncc(C(=O)N2CCC(C)CC2)c(-c2cccc(C)c2)n1 [compound 343] | > 10 | > 10
27 | COCCNc1ncc(C(=O)N2CC(C)CC(C)C2)c(-c2cccc(C)c2)n1 (centres unmarked) [compound 325] | > 10 | > 10
28 | O=C(c1cnc(N2CCOCC2)nc1-c1ccc(-c2ccccc2)cc1)N1CCCCC1 [compound 229] | > 10 | > 10
29 | Cc1cccc(-c2nc(NCC3CCCCC3)ncc2C(=O)N2CCOCC2)c1 [compound 306] | > 10 | > 10
30 | CC(C)N(Cc1ccccc1)C(=O)c1cnc(NCC2CC2)nc1-c1ccccc1F [compound 277] | 2 to 10 | > 10
31 | COCCCNc1ncc(C(=O)NCC2CC2)c(-c2ccc(C#N)cc2)n1 [compound 231] | > 10 | > 10
32 | CCN(Cc1ccccc1)C(=O)c1cnc(N2CCCC2)nc1-c1ccc(C#N)cc1 [compound 340] | > 10 | > 10
33 | COc1ccc(CCN(C)c2ncc(C(=O)N3CC(C)CC(C)C3)c(-c3ccc(C#N)cc3)n2)cc1OC (centres unmarked) [compound 285] | > 10 | > 10
34 | CC(=O)NCCNc1ncc(C(=O)N2CCC(C)CC2)c(-c2ccc(-c3ccccc3)cc2)n1 [compound 251] | 2 to 10 | > 10
35 | Cc1cccc(-c2nc(NC3CC4CC(C3C)C4(C)C)ncc2C(=O)N2CCOCC2)c1 (centres unmarked) [compound 288] | > 10 | > 10
36 | CCCCNC(=O)c1cnc(N(C)CCc2ccc(OC)c(OC)c2)nc1-c1ccc(C#N)cc1 [compound 299] | > 10 | > 10
37 | CCN(Cc1cccc(C)c1)C(=O)c1cnc(NCCNC(C)=O)nc1-c1ccccc1F [compound 308] | > 10 | > 10
38 | CCN(Cc1cccc(C)c1)C(=O)c1cnc(N(C)CC)nc1-c1ccccc1F [compound 246] | 2 to 10 | > 10
39 | CC(=O)N1CCN(c2ncc(C(=O)N(C)CC(C)C)c(-c3ccc(-c4ccccc4)cc3)n2)CC1 [compound 225] | 2 to 10 | > 10
40 | CCN(C)c1ncc(C(=O)NCCCOC)c(-c2cccc(C)c2)n1 [compound 223] | > 10 | > 10
